Experimental data taken from EP0531370B1, “INHIBITION OF VIRAL INFECTION” (priority 1990, dated 1991).
Like-named read-outs stand apart in the source and are kept apart here.

Key:
[1] = test system: retroviral vector pWET-TAC ψ2; assay: Infection of NIH-3T3 cells by retroviral vector pWeT-TAC ψ2, count of G418-resistant colonies; type: cell-based; conditions: for inhibition at 1000 µM / activity at 1000 µM: 1mM; for activity at 1000 µM / activity at 2000 µM / activity at 3000 µM: read-out: % of control colonies counted; for inhibition of G418-resistant colony formation (in words): concentrations of Table 1 (1mM to 3mM); for inhibition at 2000 µM / activity at 2000 µM: 2mM; for inhibition at 3000 µM / activity at 3000 µM: 3mM
T-cell adapted HIV-1 = assay: microbe, parasite or virus in culture; type: cell-based; conditions: for minimal effective concentration: Human immunodeficiency virus 1, T-cell, 336 h, read-out: Minimum Antiviral Concentration; for Therapeutic Index: T-Cell Line with T-virus; for antiviral activity (P24 antigen level in supernatant): virus T and the T-cell line, Day 14
in vitro [2] = conditions: human, t-cell line
in vitro [3] = conditions: human, pbmc
MPSV^28 [4] = assay: Southern hybridisation of genomic DNA of NIH/3T3 cells after infection with MPSV^28; type: cell-based, murine myeloproliferative sarcoma virus; conditions: 2mM, most obvious at 24 and 48 hours after infection
monocyte adapted HIV-1 = assay: microbe, parasite or virus in culture; type: cell-based; conditions: for minimal effective concentration: Human immunodeficiency virus 1, Monocyte, 336 h, read-out: Minimum Antiviral Concentration; for Therapeutic Index: PBMC's with M-virus, * partial inhibition only; for virus production (P24 antigen level in supernatant): virus M and PBMC's, Day 14, all concentrations tested
[5] = test system: integration of foreign DNA into the genome; conditions: calcium phosphate mediated DNA transfection; cited from earlier work
MPSV^28 [6] = assay: Dot-blot analysis of high molecular weight DNA of HL-60 cells after infection with MPSV^28; type: cell-based, murine myeloproliferative sarcoma virus; conditions: 1.5mM, 72 hours after infection
Protocol: In this case cells were pretreated with 0.4% DMSO and […] polybrene for 24 hours. At the time of infection this medium was removed and fresh medium containing the same concentration of DMSO and polybrene, plus 5 x 10^5 c.f.u. of the vector were added to 10^7 cells either in the presence (+) or absence (-) of the inhibitor (5 x 10^6 cells for each condition). 24 hours after infection the medium was removed and cells were placed in fresh medium containing no DMSO or polybrene. Cells were incubated in this medium for another 48 hours before being harvested (approximately 2 x 10^7 cells with, and 2 x 10^7 without the inhibitor).

[7] = test system: monocyte adapted laboratory strain of HIV; type: cell-based, HIV-1; conditions: monocyte line, Day 7
in vitro [8] = conditions: human
[9] = test system: AZT-resistant HIV isolate; type: cell-based, HIV-1
[10] = test system: continuous human T-cell line; assay: Cell toxicity assay, trypan blue exclusion (Example 6), T-cell line; conditions: 150µM, Days 1, 6 and 10
[11] = test system: phytohaemagglutinin (PHA) stimulated peripheral blood mononuclear cells (PBMC); assay: Cell toxicity assay, trypan blue exclusion (Example 6), PBMC; conditions: 150µM; PBMC's; Days 1, 6 and 10
vaccinia virus = conditions: BSC40 cells, 24 hours at 37°C, cited from earlier work
[12] = NIH3T3, NIH-3T3, G418-resistant colonies, read-out: % inhibition achieved
[13] = NIH3T3, NIH-3T3, G418-resistant colonies

Compound: NC(=O)c1cccc(NC=O)c1 [3-N-formylaminobenzamide]
- inhibition at 1000 µM [1, 12]: 64%
- activity at 1000 µM [1, 13]: 36%
- inhibition of G418-resistant colony formation (in words) [1]: even greater inhibition

Compound: COc1cccc(C(N)=O)c1 [3-methoxybenzamide]
- minimal effective concentration (T-cell adapted HIV-1): 0.19 µM
- Therapeutic Index (T-cell adapted HIV-1): >15 800
- antiviral activity (P24 antigen level in supernatant) (T-cell adapted HIV-1): showed particular activity
- MNTC (in vitro [2]): 3 mM
- MNTC (in vitro [3]): 3 mM
- appearance of complete proviral DNA in the genomic DNA (MPSV^28 [4]): inhibited
- minimal effective concentration (monocyte adapted HIV-1): 0.19 µM
- Therapeutic Index (monocyte adapted HIV-1): >15 800*
- virus production (P24 antigen level in supernatant) (monocyte adapted HIV-1): partially inhibited virus production
- integration of foreign DNA into the genome [5]: blocked
- appearance of the proviral DNA (MPSV^28 [6]): inhibited
- inhibition at 2000 µM [1, 12]: 82%
- activity at 2000 µM [1, 13]: 18%
- inhibition of G418-resistant colony formation (in words) [1]: very effective

Compound: COc1ccc(C(N)=O)cc1 [4-methoxybenzamide, reference compound]
- inhibition at 2000 µM [1, 12]: 15%
- activity at 2000 µM [1, 13]: 85%
- inhibition of G418-resistant colony formation (in words) [1]: did not inhibit

Compound: NC(=O)c1ccc(NC=O)cc1 [4-formylaminobenzamide, reference compound]
- inhibition at 1000 µM [1, 12]: 8%
- activity at 1000 µM [1, 13]: 92%
- inhibition of G418-resistant colony formation (in words) [1]: did not inhibit

Compound: O=C1NC(CCCl)Oc2ccccc21 (stereo not drawn) [Chlorthenoxazine, chlorthenoxazine]
- antiviral activity (supernatant p24 antigen) ([7]; concentrations tested 150 to 0.015µM): active and has a clear dose response
- viability at 336 h (in vitro [8]): > 50%
- antiviral activity (supernatant p24 antigen) ([9]; 0.15µM, PBMC's, Day 7, no smooth dose response): possibly active

Compound: NC(=O)c1ccc(N)cc1 [4-aminobenzamide, reference compound]
- inhibition at 3000 µM [1, 12]: 12%
- activity at 3000 µM [1, 13]: 88%
- inhibition of G418-resistant colony formation (in words) [1]: did not inhibit

Compound: Cc1cn([C@H]2C[C@H](N=[N+]=[N-])[C@@H](CO)O2)c(=O)[nH]c1=O [AZT, 3'-azido-2',3'-dideoxythymidine, reference compound]
- minimal effective concentration (T-cell adapted HIV-1): 0.007 µM
- Therapeutic Index (T-cell adapted HIV-1): 142 900
- antiviral activity (P24 antigen level in supernatant) (T-cell adapted HIV-1): inhibited virus with a good dose response
- MNTC (in vitro [2]): 1 mM
- toxicity (viable counts) [10]: non-toxic
- toxicity (viable counts) [11]: non-toxic
- MNTC (in vitro [3]): 1 mM
- antiviral activity (supernatant p24 antigen) ([7]; 0.15µM): significant antiviral activity
- minimal effective concentration (monocyte adapted HIV-1): 0.007 µM
- Therapeutic Index (monocyte adapted HIV-1): 142 900
- virus production (P24 antigen level in supernatant) (monocyte adapted HIV-1): inhibited virus with a good dose response
- virus inhibition (supernatant p24 antigen) [9]: inhibited completely
- virus suppression (supernatant p24 antigen) [9]: did not suppress the virus

Compound: Nc1cccc(C(=O)O)c1 [3-aminobenzoic acid, reference compound]
- inhibition at 3000 µM [1, 12]: 10%
- activity at 3000 µM [1, 13]: 90%
- inhibition of G418-resistant colony formation (in words) [1]: did not inhibit

Compound: NC(=O)c1cccnc1 [nicotinamide]
- viral replication (vaccinia virus; 20mM): affected
- decrease of viral replication (vaccinia virus; 60mM): greater than 99%

Compound: NC(=O)c1cccc(N)c1 [3-aminobenzamide]
- integration of foreign DNA into the genome [5]: blocked
- inhibition of the formation of G418 resistant colonies ([1]; 1mM inhibitor): small degree of inhibition
- inhibition at 3000 µM [1, 12]: 45%
- activity at 3000 µM [1, 13]: 55%
- inhibition at 3000 µM ([1]; NIH3T3, read-out: inhibition of the formation of G418 resistant colonies): 50%
- inhibition at 5000 µM ([1]; NIH3T3, 5mM, read-out: inhibition of the formation of G418 resistant colonies): 60%
- inhibition of G418-resistant colony formation (in words) [1]: significant degree of inhibition
